Experimental data: US20240270821A1, “GIP/GLP1/GCG TRI-RECEPTOR AGONISTS AND USES THEREOF” (priority 2023, published 2024)
Where a chain is given by its changes, count along the chain named. Starred links: 1 amine or outer side, 2 acyl side, 3 side chain; linkers in the order of their positions; H or OH if unused. Non-standard residues stand in square brackets, D forms with d. Groups on a side chain read outwards from the residue. No end group written: not given here. *: point of attachment. C20 diacid = O=C(O)CCCCCCCCCCCCCCCCCCC(=O)*; C18 diacid = O=C(O)CCCCCCCCCCCCCCCCC(=O)*; γGlu = O=C(O)[C@H](CCC(=O)[*:2])N[*:1]; αMe4Pal = C[C@](N)(Cc1ccncc1)C(=O)O; αMeY = C[C@](N)(Cc1ccc(O)cc1)C(=O)O; 4Pal = N[C@@H](Cc1ccncc1)C(=O)O; αMeL = CC(C)C[C@](C)(N)C(=O)O; Orn = NCCC[C@H](N)C(=O)O; AEEA = NCCOCCOCC(=O)O; Aib = CC(C)(N)C(=O)O

B1: Example 510 (peptide)
chain: YXQGTXTSDXSILLDKKAQXAFIEYLEEGGPSSGAPPPSGTGE
modifications: synthetic construct; SITE 2: note = 2-Aminoisobutyric Acid; SITE 6: note = alpha-methyl-2-fluoro-L-phenylalanine; SITE 10: note = 3-(4-Pyridyl)-L-alanine; SITE 17: note = Lysine is chemically modified through conjugation of the epsilon-amino group of the Lysine side chain with (gamma-Glu)2-CO-(CH2)1
B2: Example 694 (peptide)
chain: YXQGTXTSDXXIXLDXKAQXEFIEXLVEGGPSSGAPPPSGS
modifications: synthetic construct; SITE 2: note = 2-Aminoisobutyric Acid; SITE 6: note = alpha-methyl-2-fluoro-L-phenylalanine; SITE 10: note = 3-(4-Pyridyl)-L-alanine; SITE 11: note = alpha-methyl-L-serine; SITE 13: note = alpha-methyl-leucine; SITE 16: note = L-ornithine; SITE 17: note = Lysine is chemically mo
B3: Example 712 (peptide)
chain: YXQGTXTSDXXIXLDXKAQXEFIEXLIEGGPSSGAPPPSGSE
modifications: synthetic construct; SITE 2: note = 2-Aminoisobutyric Acid; SITE 6: note = alpha-methyl-2-fluoro-L-phenylalanine; SITE 10: note = 3-(4-Pyridyl)-L-alanine; SITE 11: note = alpha-methyl-L-serine; SITE 13: note = alpha-methyl-leucine; SITE 16: note = L-ornithine; SITE 17: note = Lysine is chemically mo
B4: Example 358 (peptide)
chain: YXQGTFTSDYSKXLDKKAQXAFIEYLLEGGESSGAPPPSGS
modifications: synthetic construct; SITE 2: note = 2-Aminoisobutyric Acid; SITE 13: note = alpha-methyl-leucine; SITE 17: note = Lysine is chemically modified through conjugation of the epsilon-amino group of the Lysine side chain with (2-[2-(2-Amino-ethoxy)-ethoxy]-acetyl)-(gamma-Glu)-CO-(CH2) 16-CO2H; SITE 20: n
B5: Example 119 (peptide)
chain: B4 chain with Y10F, K12X, Y25W, E31P, S41E
modifications: synthetic construct; SITE 2: note = 2-Aminoisobutyric Acid; SITE 12: note = L-ornithine; SITE 13: note = alpha-methyl-leucine; SITE 17: note = Lysine is chemically modified through conjugation of the epsilon-amino group of the Lysine side chain with (2-[2-(2-Amino-ethoxy)-ethoxy]-acetyl)-(gamma-Glu)

Tests used:
hGIPR [1] = target: T1, hGIPR (Homo sapiens, UniProt P48546); experiment: Functional cAMP activity in the presence of 1% HSA; assay type: cell-based; conditions: read-out: cAMP Rel EC50, hGIPR
T1 sequence (P48546 22-466): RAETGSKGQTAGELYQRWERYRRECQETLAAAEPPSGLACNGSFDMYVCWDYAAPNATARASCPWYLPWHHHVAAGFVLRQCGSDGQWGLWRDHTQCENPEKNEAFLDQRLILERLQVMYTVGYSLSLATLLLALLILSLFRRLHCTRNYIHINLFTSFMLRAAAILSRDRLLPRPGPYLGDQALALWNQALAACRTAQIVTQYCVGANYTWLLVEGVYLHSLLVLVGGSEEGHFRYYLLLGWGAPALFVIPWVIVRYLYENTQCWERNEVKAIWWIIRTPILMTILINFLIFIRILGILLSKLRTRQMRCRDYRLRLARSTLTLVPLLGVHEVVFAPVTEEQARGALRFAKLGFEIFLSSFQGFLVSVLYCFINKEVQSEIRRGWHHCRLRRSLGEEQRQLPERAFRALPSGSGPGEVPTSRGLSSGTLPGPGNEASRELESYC

hGLP-1R [2] = target: T2, hGLP-1R (Homo sapiens, UniProt P43220); experiment: Functional cAMP activity in the presence of 1% HSA; assay type: cell-based; conditions: read-out: cAMP Rel EC50, hGLP-1R
T2 sequence (P43220 24-463): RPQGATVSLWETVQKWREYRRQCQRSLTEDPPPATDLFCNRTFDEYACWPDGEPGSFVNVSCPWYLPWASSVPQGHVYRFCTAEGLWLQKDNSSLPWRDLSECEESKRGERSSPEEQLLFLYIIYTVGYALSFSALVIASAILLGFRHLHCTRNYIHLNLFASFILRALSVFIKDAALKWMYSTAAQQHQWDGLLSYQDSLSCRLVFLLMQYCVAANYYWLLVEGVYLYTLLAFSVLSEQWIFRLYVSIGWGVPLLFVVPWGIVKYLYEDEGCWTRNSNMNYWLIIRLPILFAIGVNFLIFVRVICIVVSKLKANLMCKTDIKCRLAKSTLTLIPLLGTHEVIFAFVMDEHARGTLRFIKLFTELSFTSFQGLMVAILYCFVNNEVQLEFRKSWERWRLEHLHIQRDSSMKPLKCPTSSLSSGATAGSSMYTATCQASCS

human GcgR = human GcgR (Homo sapiens, UniProt P47871); experiment: Functional cAMP activity in the presence of 1% HSA; assay type: cell-based; conditions: read-out: cAMP Rel EC50, hGcgR
Chain of human GcgR (P47871 26-477): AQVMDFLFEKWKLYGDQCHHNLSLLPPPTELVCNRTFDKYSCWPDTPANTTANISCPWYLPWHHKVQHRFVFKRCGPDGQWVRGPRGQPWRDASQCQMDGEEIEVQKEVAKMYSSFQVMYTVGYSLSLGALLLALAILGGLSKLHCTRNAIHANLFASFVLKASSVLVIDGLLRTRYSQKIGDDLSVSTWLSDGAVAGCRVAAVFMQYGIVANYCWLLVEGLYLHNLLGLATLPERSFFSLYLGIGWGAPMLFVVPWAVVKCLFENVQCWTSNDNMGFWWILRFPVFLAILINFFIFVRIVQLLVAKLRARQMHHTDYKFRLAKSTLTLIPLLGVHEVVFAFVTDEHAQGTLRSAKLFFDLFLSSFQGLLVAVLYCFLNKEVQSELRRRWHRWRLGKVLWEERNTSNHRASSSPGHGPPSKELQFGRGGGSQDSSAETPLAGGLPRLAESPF

hGIPR [3] = target: T1, hGIPR; experiment: Functional cAMP activation in the presence of 0.1% casein (no HSA); assay type: cell-based; conditions: in the presence of 0.1% casein (no HSA); geometric mean; read-out: Relative cAMP EC50, hGIPR;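 on Relative cAMP EC50, hGIPR: intracellular cAMP rise after 30 min at 37 °C read by HTRF against a standard curve, scaled between buffer alone (0%) and top control ligand concentration (100%), four-parameter fit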;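 on Relative cAMP EC50, hGLP-1R: intracellular cAMP rise after 30 min at 37 °C read by HTRF, normalized between buffer only (0%) and maximal control ligand (100%), four-parameter variable-slope fit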;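 on Relative cAMP EC50, hGcgR: intracellular cAMP rise after 30 min at 37 °C, read by HTRF against a cAMP standard curve, scaled from buffer only (0%) to maximal control ligand response (100%)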
hGLP-1R [4] = target: T2, hGLP-1R; experiment: as above; assay type: cell-based; conditions: in the presence of 0.1% casein (no HSA); geometric mean; read-out: Relative cAMP EC50, hGLP-1R
hGcgR = hGcgR (Homo sapiens, UniProt P47871); experiment: as above; assay type: cell-based; conditions: in the presence of 0.1% casein (no HSA); geometric mean; read-out: Relative cAMP EC50, hGcgR;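 further: intracellular cAMP rise after 30 min at 37 °C, read by HTRF against a cAMP standard curve, scaled from buffer only (0%) to maximal control ligand response (100%)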
Chain of hGcgR (P47871 26-477): as above

human GLP1-R = human GLP1-R (Homo sapiens, UniProt P43220); experiment: GLP1-R internalization assay in HEK293 cells; assay type: cell-based; conditions: for EC50: HEK293 cells expressing SNAP-GLP-1R, read-out: GLP1R Internalization EC50; for Internalization % TOP: normalized to maximum concentration of GLP-1 (100%)
Chain of human GLP1-R (P43220 24-463): as the sequence (P43220 24-463) above

[5] = target: human GLP-1R (SNAP-GLP-1R expressed in HEK293 cells) (human) (UniProt P43220); experiment: cell-based or functional assay
Chain of human GLP-1R (SNAP-GLP-1R expressed in HEK293 cells) (human) (P43220 24-463): as above

hGLP-1R [6] = target: T2, hGLP-1R; experiment: cell-based or functional assay
[7] = target: T3, human GIP receptor (human) (UniProt P48546); experiment: cell-based or functional assay
T3 sequence (looked up): T1 sequence (P48546 22-466)

[8] = target: human glucagon receptor (human) (UniProt P47871); experiment: cell-based or functional assay
Chain of human glucagon receptor (human) (P47871 26-477): as the sequence (P47871 26-477) above

Molecule | EC50 (hGIPR [1]) | EC50 (hGLP-1R [2]) | EC50 (human GcgR) | EC50 (hGIPR [3]) | EC50 (hGLP-1R [4]) | EC50 (hGcgR) | EC50 (human GLP1-R) | Internalization % TOP (human GLP1-R) | GLP1R Internalization EC50 [5] | Internalization % TOP [5] | other results
H-Y[Aib]QGTFTSDFS[Orn][αMeL]LDKK([AEEA-γGlu-C18 diacid])AQ[Aib]AFIEYLLEGG[4Pal]SSGAPPPGGS-NH2 [Example 163] | 52 nM | 762 nM | 790 nM | 0.376 nM | 6.5 nM | 5.6 nM | 143 nM | 37.8% |  |  | 
Y[Aib]QGTFTSD[4Pal]SQ[αMeL]LD[Orn]K([γGlu-γGlu-C18 diacid])AQ[αMe4Pal]QFIE[αMeY]LIEGGPSSGEPPPSGSEE-NH2 [Example 1026] | 61.3 nM | 299 nM | 2080 nM | 0.308 nM | 1.77 nM | 6.32 nM | 47.4 nM | 80% |  |  | 
H-Y[Aib]QGTFTSDFSK[αMeL]LDKK([AEEA-γGlu-C18 diacid])AQ[Aib]AFIEYLLE[Aib]GPSSGAPPPSEG-NH2 [Example 57] | 3.78 nM | 42.7 nM | 113 nM | 0.098 nM | 3.06 nM | 4.37 nM | 76.6 nM | 73.1% |  |  | 
H-Y[Aib]QGTFTSDFS[Orn][αMeL]LDKK([AEEA-AEEA-γGlu-C20 diacid])AQ[Aib]AFIEYLLE[Aib]GPSSGAPPPSEG-NH2 [Example 71] | 48.1 nM | 1010 nM | 2800 nM | 0.105 nM | 3.12 nM | 8.74 nM | 58.8 nM | 68.6% |  |  | 
B1 |  |  |  |  |  |  |  |  | 11.8 nM | 113% | 
B2 |  |  |  |  |  |  |  |  | 21.8 nM | 97.3% | 
B3 |  |  |  |  |  |  |  |  | 35.3 nM | 109% | 
B4 |  |  |  |  |  |  |  |  | 21.5 nM | 83.1% | Relative cAMP EC50 (hGLP-1R [6]): 2.31 nM; cAMP Rel EC50, nM (1% HSA) (hGLP-1R [6]): 492 nM; Relative cAMP EC50 [7]: 0.182 nM; cAMP Rel EC50, nM (1% HSA) [7]: 38.8 nM; Relative cAMP EC50 [8]: 2.78 nM; cAMP Rel EC50, nM (1% HSA) [8]: 876 nM
B5 |  |  |  |  |  |  |  |  | 73.5 nM | 43.4% | 
Y[Aib]QGTFTSDYSI[αMeL]LDKQAAK([AEEA-AEEA-γGlu-C20 diacid])QFVEWLIA[Aib]GPSSGEPPPAEG-NH2 [Example 334] |  |  |  |  |  |  |  |  | 28.3 nM | 96.8% | Relative cAMP EC50 (hGLP-1R [6]): 0.707 nM; cAMP Rel EC50 (1% HSA) (hGLP-1R [6]): 171 nM; Relative cAMP EC50 [7]: 0.223 nM; cAMP Rel EC50 (1% HSA) [7]: 72.1 nM; Relative cAMP EC50 [8]: 6.77 nM; cAMP Rel EC50 (1% HSA) [8]: 2070 nM
